This note sets out measurements from ChEMBL document CHEMBL1155719, “Synthesis of phakellistatin 11: a micronesia (Chuuk) marine sponge cyclooctapeptide” (2001).

In brackets after ≈: the same amount, converted by molar mass. Residues, ends and D or L forms follow the SMILES beside them.

The test system of experiment [1] is P388. Kind of experiment: Cytotoxicity against mouse P388 cells. The format is functional. The following applies: read-out: ED50 (the source's name).
Experiment [2] relates to P388. Kind of experiment: Cytotoxicity against mouse P388 cells by NMR biological activity study. It is filed as functional. The following applies: read-out: ED50 (the source's name).

With `CC[C@H](C)[C@@H]1NC(=O)[C@@H]2CCCN2C(=O)[C@H](Cc2ccccc2)NC(=O)[C@@H]2CCCN2C(=O)[C@H](Cc2ccc(O)cc2)NC(=O)[C@@H]2CCCN2C(=O)[C@H]([C@@H](C)CC)NC1=O.Cl` [PHAKELLISTATIN 2 (SYNTHETIC)] (cyclo(FPIIPYP)), the EC50 with P388 [1] was 24 µg/mL.
Same read-out and setting: then `CC[C@H](C)[C@@H]1NC(=O)[C@@H]2CCCN2C(=O)[C@H](Cc2ccccc2)NC(=O)[C@@H]2CCCN2C(=O)[C@H](Cc2ccc(O)cc2)NC(=O)[C@@H]2CCCN2C(=O)[C@H]([C@@H](C)CC)NC1=O` [PHAKELLISTATIN 2] (cyclo(FPIIPYP)), with 0.34 µg/mL (≈ 0.411 µM).
For the molecule `CC[C@H](C)[C@@H]1NC(=O)[C@H](CC(C)C)NC(=O)[C@@H]2CCCN2C(=O)[C@H]([C@@H](C)CC)NC(=O)[C@@H]2CCCN2C(=O)[C@H](CO)NC(=O)[C@H](Cc2ccccc2)NC1=O` [STYLOPEPTIDE] (cyclo(FSPIPLI)), the EC50 with P388 [1] came out at 0.1 µg/mL (≈ 0.13 µM); in the experiment on P388 [2] it was 6 µg/mL (≈ 7.81 µM).
Regarding `CC[C@H](C)[C@@H]1NC(=O)[C@H](C)NC(=O)[C@H](CC(C)C)NC(=O)[C@H](CO)NC(=O)[C@H](CC(N)=O)NC(=O)[C@H](Cc2ccccc2)NC(=O)[C@@H]2CCCN2C1=O` [STYLOSTATIN 1] (cyclo(AIPFNSL)), the EC50 in the experiment with P388 [1] amounted to 10 µg/mL (≈ 13.5 µM).
